According to patent US10085449B2, “N-[1-((6-chloropyridin-3-yl)methyl)pyridin-2(1H)-ylidene]-2,2,2- trifluoroacetamide for control of agricultural/horticultural pests” (priority 2010, dated 2018):
Like-named read-outs stand apart in the source and are kept apart here.

Columns and labels:
common cutworm = assay: whole plant or invertebrate; type: in vivo; conditions: for Insecticidal effects (mortality), common cutworm third-instar larvae: foliar application
Summary of the method: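 Cabbage leaf discs (5.0 cm) sprayed with compound at a set concentration in 50% acetone/water with 0.05% Tween 20, air dried, then infested with third-instar larvae. Held at 25° C., 16 h light/8 h dark; dead and live larvae counted after 3 days, two replicates, mortality (%) = dead/(live+dead)×100.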

[1] = system: Haemaphysalis longicornis; assay: Tick (Haemaphysalis longicornis) control test on body surface of mouse; type: in vivo, Haemaphysalis longicornis on mice (ICR); conditions: 20 μL of 1,000-fold dilution of agent prepared as in Formulation Example 11 on mouse body surface, larval ticks, 3 days after release
Description: Ventral fur was shaved from an area having a diameter of about 2 cm in mice (ICR, 5-week-old males), and a 15 mL polystyrene conical tube cut to a length of about 1.5 cm was attached to the shaved area using instant glue.
An amount of 20 μL of a 1,000-fold dilution of the pest control agent prepared in the same way as in Formulation Example 11 was added dropwise onto the body surface of the mice within the attached tube. After the solution was allowed to dry thoroughly, ten or more larval ticks (Haemaphysalis longicornis) were released into the tube, which was then capped. Three days after released, the numbers of live and dead ticks were counted, and the mortality was calculated from the following formula. Blood-feeding inhibition (%)=100−[number of feeding ticks/(number of live ticks+number of dead ticks)]×100

cotton aphid = assay: whole plant or invertebrate; type: in vivo; conditions: Aphis gossypii, foliar
Summary of the method: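 Cucumber leaf discs (2.0 cm) sprayed with compound in 50% acetone/water with 0.05% Tween 20, air-dried, then infested with first-instar cotton aphids. Held at 25 °C under 16 h light/8 h dark; mortality counted after 3 days, two replicates.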

rice leaf bug = assay: whole plant or invertebrate; type: in vivo; conditions: foliar, 72 h
Summary of the method: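 Four-day wheat seedling shoots dipped 30 s in compound solution (50% acetone/water, 0.05% Tween 20), air-dried, then infested with two second-instar larvae per glass cylinder at 25 °C, 16 h light/8 h dark. Mortality (%) counted after 3 days.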

green peach aphid = assay: Green peach aphid control test (foliar application); type: in vivo; conditions: Myzus persicae, in Brassica oleracea, 72 h
Excerpt: Leaf discs 2.8 cm in diameter were cut from cabbage plants grown in pots, and four adult aphids were released onto each disc. One day later, the adults were removed, and the number of first-instar larvae that had been deposited on each leaf disc was adjusted to 10. Next, the leaf discs parasitized by these first instar larvae were sprayed with solutions of the inventive compounds at a predetermined concentration prepared to 50% acetone/water (containing 0.05% Tween 20). The treated leaf discs were air dried, following which covers were placed over the Petri dishes and the leaf discs and larvae were held in an incubation chamber at 25° C. (16-hour period of light, 8-hour dark period). Three days after released, the numbers of live and dead insects were counted, and the mortality was calculated from the following formula. This was a two-replication test. Mortality (%)=[number of dead insects/(number of live insects+number of dead insects)]×100

greenhouse whitefly = assay: whole plant or invertebrate; type: in vivo; conditions: Cucumis sativus, foliar, 336 h
Description: Adult greenhouse whiteflies were released onto cucumber plants grown in pots, and allowed to laid eggs overnight. One day after the start of oviposition, the adults were removed, and the plants and eggs were held in an incubation chamber at 25° C. (16-hour period of light, 8-hour dark period). Three days after the end of oviposition, leaf discs 2.0 cm in diameter were cut from the cucumber plants and, after confirming oviposition thereon, the leaf discs were sprayed with solutions of the inventive compounds at a predetermined concentration prepared to 50% acetone/water (containing 0.05% Tween 20). After spraying, the treated leaf discs were held in an incubation chamber at 25° C. (16-hour period of light, 8-hour dark period). Fourteen days after spraying, the numbers of live and dead insects were counted, and the mortality was calculated from the following formula. This was a two-replication test. Mortality (%)=[(number of oviposited eggs−number of live insects)/number of oviposited eggs]×100

[2] = system: brown rice planthopper having a low susceptibility to insecticides; type: in vivo; set-up: key to Brown rice planthopper, Kumamoto low susceptibility (rice soil drenching), effect: mortality %, dead/(live+dead) ×100; conditions: for Mortality: all the lines (susceptible line, field-collected lines I and II); for Insecticidal effects (mortality), brown rice planthopper second-instar larvae: soil drenching treatment
Description: Rice seedlings grown in pots were subjected to soil drenching treatment with solutions of the inventive compounds at a predetermined concentration prepared to 10% acetone/water. Three days after treatment, ten second-instar brown rice planthopper larvae having a low susceptibility to insecticides were released onto each seedling. The seedlings and insects were then held in an incubation chamber at 25° C. (16-hour period of light, 8-hour dark period). Three days after released, the numbers of live and dead insects were counted, and the mortality was calculated from the following formula. The test was carried out as two replications. Mortality (%)=[number of dead insects/(number of live insects+number of dead insects)]×100
The pests used in this test were insects that had been raised indoors for successive generations over a long period of time (susceptible line), and insects that had been raised indoors for successive generations after being collected (I) in 2007 within Kumamoto Prefecture and (II) in 2005 within Fukuoka Prefecture (field-collected lines).

[3] = read-out: Insecticidal effects (mortality), cotton aphid first-instar larvae

## O=C(N=c1ccccn1Cc1ccc(Cl)nc1)C(F)(F)F [Compound 212, N-[1-((6-chloropyridin-3-yl)methyl)pyridin-2(1H)-ylidene]-2,2,2-trifluoroacetamide]
Common cutworm; 100 ppm
  Insecticidal effects (mortality), common cutworm third-instar larvae: 30
Common cutworm; 500 ppm
  Insecticidal effects (mortality), common cutworm third-instar larvae: 100
Common cutworm; foliar, 72 h
  mortality at 500 ppm: ≥ 80%
[1]
  Blood-feeding inhibition: 91%
Cotton aphid; [3]
  mortality at 1.25 ppm: 100%
  mortality at 5 ppm: 95%
  mortality at 20 ppm: 100%
  mortality at 100 ppm: 100%
  mortality at 500 ppm: 100%
Cotton aphid; in Cucumis sativus, 72 h
  mortality at 20 ppm: ≥ 80%
  mortality at 100 ppm: ≥ 80%
  mortality at 500 ppm: ≥ 80%
Rice leaf bug
  mortality at 50 ppm: ≥ 80%
Green peach aphid
  mortality at 100 ppm: ≥ 80%
Greenhouse whitefly
  mortality at 100 ppm: ≥ 80%
[2]; 0.005 mg/seedling soil drenching
  Mortality: at least 90%
[2]; 0.05 mg/seedling soil drenching
  Mortality: 100%
[2]; 0.005 mg/pot
  Brown rice planthopper, Kumamoto low susceptibility (rice soil drenching), effect: 90
[2]; 0.05 mg/pot
  Brown rice planthopper, Kumamoto low susceptibility (rice soil drenching), effect: 100
  Insecticidal effects (mortality), brown rice planthopper second-instar larvae: 100
[2]; 0.02 mg/pot
  Insecticidal effects (mortality), brown rice planthopper second-instar larvae: 100
